One assay concerns E. coli ATCC 25922. Briefly: MIC, E. coli ATCC 25922. The conditions noted are these: for MIC: Escherichia coli, ATCC25922, E. coli. The format is cell-based.
In a further assay the test system is S. aureus ATCC 13709. Briefly: MIC, S. aureus ATCC 13709 (Alamar Blue broth microdilution). In kind it is cell-based. The settings on record: for MIC: Staphylococcus aureus, ATCC13709, S. aureus. For orientation: Alamar Blue is a resazurin reagent that responds to reducing activity.
Where [1] appears, read: Alamar Blue read after overnight incubation at 35° C.
The mark [2] stands for this setting: E. coli, Alamar Blue read after overnight incubation at 35° C.
Where [3] appears, read: S. aureus, Alamar Blue read after overnight incubation at 35° C.

As usually defined, the MIC is the least concentration at which growth counts as inhibited. Low readings indicate inhibition by little substance, high ones a need for much substance.

SMILES strings stand for the structures. Values after ≈ are worked out from the molar mass of the structure shown. Read-outs that look alike come from different tables or passages of the source.

On to `CNc1cc(F)cc2c1[nH]c1nc(Oc3cncnc3)nc(N3CCC4CNC4C3)c12` (stereo not drawn) [4.018], for which the MIC in the assay on E. coli ATCC 25922 (setting [1]) and against S. aureus ATCC 13709 (setting [1]) was no more than 0.5 µg/mL each time.
On to `CNc1cc(F)cc2c1[nH]c1nc(Oc3cncc(F)c3)nc(N3CC4(CCC4N)C3)c12` (stereo not drawn) [4.061], for which, in the assay with E. coli ATCC 25922 (setting [2]), the “MIC Ec” value was no more than 0.5 µg/mL. Further, the “MIC Sa” value against S. aureus ATCC 13709 (setting [3]) was no more than 0.5 µg/mL.
Consider `CNc1cc(Cl)cc2c1[nH]c1nc(Oc3cnc(N)nc3)nc(N3CC4C(N)C4C3)c12` (stereo not drawn) [6.17], for which, in the assay with E. coli ATCC 25922, the “MIC Ec” value was no more than 0.5 µg/mL. Further, the “MIC Sa” value in the assay with S. aureus ATCC 13709 was no more than 0.5 µg/mL.
For `CNc1cccc2c1[nH]c1nc(Sc3cnc4cccnc4c3)nc(N3CCNCC3)c12` [1.46], the results for the minimum inhibitory concentration (MIC) against E. coli ATCC 25922 (setting [1]) and in the assay on S. aureus ATCC 13709 (setting [1]) were 4 µg/mL (≈ 9.04 µM) and 2 µg/mL (≈ 4.52 µM), respectively.
Regarding `CNc1cc(F)cc2c1[nH]c1nc(Oc3cnc(C)nc3)nc(N3C4CCC3C(N)C4)c12` (stereo not drawn) [4.095], the “MIC Ec” value against E. coli ATCC 25922 (setting [2]) is 8 µg/mL (≈ 18.4 µM). Moreover, the “MIC Sa” value in the assay on S. aureus ATCC 13709 (setting [3]) was determined as 2 µg/mL (≈ 4.6 µM).
Regarding `CNc1cc(F)cc2c1[nH]c1nc(Oc3cncc(Cl)c3)nc(N3CC4CC(N)C4C3)c12` (stereo not drawn) [4.271], the “MIC Ec” value with E. coli ATCC 25922 (setting [2]) is no more than 0.5 µg/mL. Moreover, the “MIC Sa” value against S. aureus ATCC 13709 (setting [3]) is no more than 0.5 µg/mL.
As to `CNc1cc(F)cc2c1[nH]c1nc(Oc3cnc(C#N)c(C)c3)nc(N3CC4CC3C[C@@H]4N)c12` (stereo partly drawn) [4.435], the MIC against E. coli ATCC 25922 (setting [1]) and in the assay on S. aureus ATCC 13709 (setting [1]) was no more than 0.5 µg/mL in each case.
Regarding `CNc1cc(F)cc2c1[nH]c1nc(Oc3cncc(Br)c3)nc(N3CC4CC3CC4N)c12` (stereo not drawn) [4.284], in the assay on E. coli ATCC 25922 (setting [2]), the “MIC Ec” value was no more than 0.5 µg/mL. Also, the “MIC Sa” value in the assay on S. aureus ATCC 13709 (setting [3]) is no more than 0.5 µg/mL.
In the case of `CNc1cc(F)cc2c1[nH]c1nc(Oc3cnc(C)nc3)nc(N3CC4CC4(CN)C3)c12` (stereo not drawn) [4.098], the “MIC Ec” value against E. coli ATCC 25922 (setting [2]) stood at 1 µg/mL (≈ 2.3 µM). Also, the “MIC Sa” value with S. aureus ATCC 13709 (setting [3]) was no more than 0.5 µg/mL.
With `CNc1cccc2c1[nH]c1nc(Oc3cncnc3)nc(N3CC4C(N)C4C3)c12` (stereo not drawn) [3.28], the MIC in the assay on E. coli ATCC 25922 (setting [1]) was 2 µg/mL (≈ 5.15 µM); against S. aureus ATCC 13709 (setting [1]), 1 µg/mL (≈ 2.57 µM).
For the molecule `CNc1cc(F)cc2c1[nH]c1nc(Oc3cncnc3)nc(N3CC4C(N)C4C3)c12` (stereo not drawn) [4.010], the “MIC Ec” value in the assay with E. coli ATCC 25922 (setting [2]) is no more than 0.5 µg/mL. In addition, in the assay with S. aureus ATCC 13709 (setting [3]), the “MIC Sa” value is no more than 0.5 µg/mL.
As to `CNc1c(F)ccc2c1[nH]c1nc(Oc3cnc4cccnc4c3)nc(N3CC(N)C4(CC4)C3)c12` (stereo not drawn) [6.03], the “MIC Ec” value in the assay on E. coli ATCC 25922 is no more than 0.5 µg/mL. In the assay on S. aureus ATCC 13709, the “MIC Sa” value was no more than 0.5 µg/mL.
For the molecule `CNc1cc(F)cc2c1[nH]c1nc(Oc3cnc(C)nc3)nc(N3C4CCC3CC(N)C4)c12` (stereo not drawn) [4.091], in the assay with E. coli ATCC 25922 (setting [2]), the “MIC Ec” value turned out to be 1 µg/mL (≈ 2.23 µM). The “MIC Sa” value against S. aureus ATCC 13709 (setting [3]) is no more than 0.5 µg/mL.
`CNc1cc(F)cc2c1[nH]c1nc(Oc3cnc(C)nc3)nc(N3CCNCC34CC4)c12` [4.133]: the “MIC Ec” value in the assay with E. coli ATCC 25922 (setting [2]) was greater than 16 µg/mL. Besides, the “MIC Sa” value with S. aureus ATCC 13709 (setting [3]) is greater than 16 µg/mL.
Turning to `CNc1cc(F)cc2c1[nH]c1nc(Oc3cnc(C)nc3)nc(N3CC(N)C(C(F)(F)F)C3)c12` (stereo not drawn) [4.436], the MIC against E. coli ATCC 25922 (setting [1]) was greater than 16 µg/mL; against S. aureus ATCC 13709 (setting [1]) it was no more than 0.5 µg/mL.
The like results for `CCc1cc(F)cc2c1[nH]c1nc(Oc3cnc(C)nc3)nc(N3CC4CC(N)C4C3)c12` (stereo not drawn) [2.4] were, in that order, 1 µg/mL (≈ 2.31 µM) and no more than 0.5 µg/mL.
Regarding `CCCc1ncc(Oc2nc(N3C[C@H](N)C4(CC4)C3)c3c(n2)[nH]c2c(NC)cc(F)cc23)cn1` [4.304], the MIC against E. coli ATCC 25922 (setting [1]) and in the assay with S. aureus ATCC 13709 (setting [1]) was no more than 0.5 µg/mL in each case.
As for `CNc1cc(F)cc2c1[nH]c1nc(Oc3cnc4[nH]cnc4c3)nc(N3CC4CC(N)C4C3)c12` (stereo not drawn) [4.310], the results for the minimal inhibitory concentration (MIC) with E. coli ATCC 25922 (setting [1]) and against S. aureus ATCC 13709 (setting [1]) were greater than 16 µg/mL and 8 µg/mL (≈ 17.4 µM), respectively.
Take `CNc1cc(F)cc2c1[nH]c1nc(Oc3cnc(C)nc3)nc(N3CCC(C4(N)CC4)C3)c12` (stereo not drawn) [4.083]: the “MIC Ec” value against E. coli ATCC 25922 (setting [2]) is no more than 0.5 µg/mL. Moreover, the “MIC Sa” value in the assay with S. aureus ATCC 13709 (setting [3]) is no more than 0.5 µg/mL.
`CNc1cc(F)cc2c1[nH]c1nc(Oc3cnc(N)nc3)nc(N3CCC4(CC4N)C3)c12` (mixture of isomers) [4.174]: in the assay on E. coli ATCC 25922 (setting [2]), the “MIC Ec” value is no more than 0.5 µg/mL. The “MIC Sa” value against S. aureus ATCC 13709 (setting [3]) is no more than 0.5 µg/mL.
Consider `CNc1cc(F)cc2c1[nH]c1nc(Oc3cnc4c(c3)ncn4C3CC3)nc(N3CC(N)C4(CC4)C3)c12` (stereo not drawn) [4.362], for which the “MIC Ec” value against E. coli ATCC 25922 (setting [2]) came to 1 µg/mL (≈ 2 µM). In addition, the “MIC Sa” value with S. aureus ATCC 13709 (setting [3]) was no more than 0.5 µg/mL.
On to `CNc1cc(F)cc2c1[nH]c1nc(Oc3cnc(N(C)C)nc3)nc(N3C[C@H](N)C4(CC4)C3)c12` [4.209], for which the MIC in the assay with E. coli ATCC 25922 (setting [1]) and against S. aureus ATCC 13709 (setting [1]) was no more than 0.5 µg/mL each time.
With `CNc1cc(F)cc2c1[nH]c1nc(Oc3cnc(C#N)c(C)c3)nc(N3CC4CC(N)C4C3)c12` (stereo not drawn) [4.323], the “MIC Ec” value with E. coli ATCC 25922 (setting [2]) turned out to be 1 µg/mL (≈ 2.18 µM). Besides, the “MIC Sa” value against S. aureus ATCC 13709 (setting [3]) is no more than 0.5 µg/mL.
For `CNc1cc(F)cc2c1[nH]c1nc(Oc3cncnc3)nc(N3C[C@H]4CC[C@@H](CN)[C@H]4C3)c12` [4.021], the minimum inhibitory concentration (MIC) in the assay on E. coli ATCC 25922 (setting [1]) was 2 µg/mL (≈ 4.46 µM); against S. aureus ATCC 13709 (setting [1]) it was no more than 0.5 µg/mL.
The like results for `CNc1cc(F)cc2c1[nH]c1nc(Oc3cnc(COC)nc3)nc(N3CC4CC(N)C4C3)c12` (stereo not drawn) [4.344] were, in that order, 2 µg/mL (≈ 4.31 µM) and no more than 0.5 µg/mL.
Consider `CNc1cccc2c1[nH]c1nc(Oc3cncnc3)nc(N3CCN(Cc4ccccn4)CC3)c12` [3.54], for which the minimal inhibitory concentration (MIC) against E. coli ATCC 25922 (setting [1]) is greater than 32 µg/mL; with S. aureus ATCC 13709 (setting [1]), 8 µg/mL (≈ 17.1 µM).
In the case of `CNc1cc(F)cc2c1[nH]c1nc(Oc3cnc(C)nc3)nc(N3CCC4(CCC4N)CC3)c12` (stereo not drawn) [4.139], in the assay with E. coli ATCC 25922 (setting [2]), the “MIC Ec” value is no more than 0.5 µg/mL. In addition, the “MIC Sa” value against S. aureus ATCC 13709 (setting [3]) was no more than 0.5 µg/mL.

These data come from patent US10858360B2, “Tricyclic gyrase inhibitors” (priority 2011, dated 2020).
